Laboratory results taken from patent publication US9468632B2, “Methods and compositions for targeting cancer stem cells” (The Regents of the University of Michigan, priority 2012, dated 2016).
Positions count from the first letter of the chain named. One block for each compound: values may come before it.

Assays:
all the ALDH1A isoforms = assay: In vitro enzymatic inhibition assays, text summary for ALDH1A isoforms; format: biochemical
ALDH+ cells = assay: FACS isolated single cells in microfluidic culture, cell death; format: cell-based
Procedure: (§1) In order to determine if the loss of CD133 or ALDH expressing cells is due to downregulation/loss of enzyme function or due to cell death, FACS isolated CD133+ or ALDH+ cells were treated as single cells in microfluidic culture. 673 treatment was associated with the death of ˜93% of CD133+ cells and 65% death of ALDH+ cells (FIG. 1B).

CD133+ cells = assay: as above; format: cell-based
Procedure: as §1

[1] = system: ovarian cancer cell lines including A2780, SKOV3, and OvCAR8; assay: MTT assay, ovarian cancer cell lines; format: cell-based, human; conditions: 72 hours, range over cell lines
Procedure: (§2) TD50 ranged from 12-50 uM.

A2780 = assay: MTT assay, A2780 viability; format: cell-based, human
Procedure: as §2

[2] = system: pancreatic cancer cell lines and breast cancer cell lines (ASPC, PANC1, MCF7); assay: MTT toxicity screen, pancreatic and breast cancer cell lines; format: cell-based
Procedure: A. MTT assay of cytotoxicity of indicated compounds at increasing doses 72 hours after treatment of ovarian cancer cell. B. MTT assay for pancreatic (ASPC and PANC1) and breast cancer (MCF7) cell lines. C. MTT assays of 673 for normal cells (HOSE and MSC) and ovarian cancer (OvCAR8) controls.
as §2

[3] = system: FACS isolated CD133+A2780 cells; assay: Tumor sphere forming assay, CD133+ A2780; format: cell-based, human; conditions: single treatment with 10 μM
Procedure: (§3) Tumor associated ascites cells were isolated by centrifugation and treated with ACK lysis buffer (Fischer Scientific). 5000 cells were placed in each well of the 6-well ultra-low adherence plates (Corning, Acton, Mass., USA) with 3 ml of supplemented MEBM (Lonza). After 24 hours, cells were treated with either media alone or UM #673. Media was added every 3-4 days, and all tumor sphere counts were done at 2 weeks. Alternatively, sphere assays were also performed with cancer cell lines A2780 and OVCAR8. Cells in culture were trypsinized and 2000 cells were either directly placed or FACS isolated for CD133+ and CD133− cells before plating in wells of ultra-low adherence plates. Images of spheres were photographed using the Olympus Microsuite Biological suite Software.
(§4) In order to further characterize UM #673 activity targeting OvCSC, a functional CSC assay was performed. Tumor sphere forming assays were performed with both FACS isolated CD133+A2780 cells and OVCAR8 cells (a cell line with >90% CD133 expression). […] This assay was repeated using primary human ovarian cancer associated ascites cell from three patients. Treatment with 673 was associated with an average of 7.3 fold (range 4-50) reduction in the number of spheres formed (FIG. 4A).

OVCAR8 cells = assay: Tumor sphere forming assay, OVCAR8; format: cell-based, human
Procedure: as §3, §4

[4] = system: primary human ovarian cancer associated ascites cell; assay: Tumor sphere forming assay, primary ascites cells; format: cell-based; conditions: three patients, range 4-50
Procedure: as §3, §4

[5] = system: in vitro treated, PI-/Annexin-FACS isolated live cells; assay: Tumor initiation capacity of in vitro treated live cells injected into mice; format: in vivo
Procedure: An important functional aspect of a cancer stem cell is the ability to initiate tumors with limited cell numbers. In order to determine if UM673 could impact tumor initiation, cells were treated in vitro with a single dose of UM673 alone or in combination with cisplatin. Cells were allowed to recover for three days and then PI(−)/Annexin(−) live cells were faxed isolated and injected into mice. 200, 1000, or 5000 cells from each treatment group (n=4-10/group) were injected.

[6] = system: A2780 tumor cell xenografts; assay: A2780 tumor cell xenografts, tumor growth; format: in vivo, mice; conditions: unsorted A2780 cells, treatment from day 3
Procedure: (§5) 6-8 week old nude female mice were purchased from Charles River Laboratories. All xenograft experiments were performed with approval of the University Committee on Use and Care of Animals of the University of Michigan. To generate tumors, 7.5×10^4 unsorted A2780 cells or 7500 CD133+ sorted A2780 cells were combined with 100 μl of DPBS and 100 μl of Matrigel (BD Biosciences), and then implanted subcutaneously into bilateral axillae of each mouse. 3 days after inoculation with tumors, mice were given an intra-peritoneal injection of (1) control DMSO 40 μl, (2) Cisplatin 250 μg/ml, (3) UM #673 10 μM, or (4) Cisplatin plus UM #673 (n=9 mice per treatment group). Tumor growth was measured using calipers, and tumor volume was calculated based on the modified ellipsoid formula (L×W×W/2), where L is the length and W is the width of the tumor. The mice were euthanized when tumors reached 1.5 to 2 cm^3 and animal safety euthanasia guidelines were met. Intraperitoneal tumors were generated using 5×10^6 OVCAR8 in […] of PBS and injected I.P. 3 days after inoculation, mice were given intra-peritoneal injection of Cisplatin or Cisplatin plus UM #673.
The impact of UM673 as a single agent was evaluated. NOD/SCID mice were inoculated with 1×10^5 unsorted A2780 cells and treatment was initiated three days after tumor inoculation with either vehicle control or UM #673. […] This is consistent with other studies of CSC targeting agents.
The experiments were repeated in combination with cisplatin. In addition, xenografts from both whole cell line and FACS isolated CD133+ cells were treated.

[7] = system: isolated CD133+ cancer stem cells initiated tumors; assay: CD133+ cancer stem cell initiated tumors, tumor growth; format: in vivo, mice; conditions: single agent
Procedure: as §5
The impact of UM673 as a single agent was evaluated. NOD/SCID mice were inoculated with 1×10^5 unsorted A2780 cells and treatment was initiated three days after tumor inoculation with either vehicle control or UM #673. […]

[8] = system: primary human tumor xenografts; assay: Primary human tumor xenografts from chemotherapy refractory ovarian cancer; format: in vivo, mice
Text: In order to confirm in vivo activity against primary ovarian cancers, primary human tumor xenografts were generated from a patient with chemotherapy refractory ovarian cancer. Xenografts were allowed to grow until they reached ˜500 mm^3, and then treatment with either vehicle, cisplatin or cisplatin and UM 673 was initiated. […] After discontinuation of therapy, tumor regrowth was observed after approximately 4 weeks (FIG. 5D).

[9] = system: Annexin-V staining (apoptosis); assay: PI/Annexin-V FACS analysis; format: cell-based
Procedure: PI/Annexin-V FACS analysis of UM673 treated cells was performed to determine if cells were undergoing apoptosis.

intracellular calcium = assay: Fluorescent analysis of intra-cellular calcium; format: cell-based
Procedure: Programmed cell necrosis is known to be linked with decreases in cellular ATP and an increase in intracellular calcium. […] Furthermore, reduction in CD 133 positive cells with UM 673 treatment could be partially abrogated by the calcium scavenging compound BAPTA (FIG. 6E). As program cell necrosis is known to be activated via the RIP kinases, the impact of the RIP kinase inhibitor necrostatin was evaluated.

UCP1 and UCP3 = assay: qRT-PCR of necrosis associated genes; format: cell-based
Procedure: (§6) ALDH1A isoforms are the primary members of the ‘retinaldehyde’ subgroup of aldehyde dehydrogenases. Retinaldehydes play a primary role in the biosynthesis of retinoic acid and thereby regulate retinoic acid mediated transcription. Retinoic acid transcription changes in cells treated with UM673 were assayed. […] 80× induction of the mitochondrial uncoupling proteins UCP1 and UCP3 was observed (FIG. 7B).

Oct4, and Sox2 = assay: qRT-PCR of stem cell genes; format: cell-based
Procedure: as §6

[10] = system: cellular oxygen consumption; assay: SeaHorse cellular metabolism studies; format: cell-based
Procedure: UCP1 and UCP3 proteins play a critical role in cellular metabolism. The impact of UM673 on cellular metabolism was evaluated.

mitochondrial metabolism = assay: LCMS of cellular metabolites; format: cell-based
A2770 cells = assay: FACS analysis of CD133 and ALDH expressing cells; format: cell-based
[11] = system: normal human ovarian surface epithelial cells; conditions: 72 h
Procedure: (§7) 7500 of HOSE, MSC, and OVCAR8 cells were plated on a 96-well plate and rested for 24 hours. They were then treated with incremental doses of 673 for 72 hours. They were then analyzed according to the Vybrant® MTT Cell Proliferation Assay Kit (Invitrogen).
(§8) The toxicity of these compounds versus normal human ovarian surface epithelial cells and healthy adipose derived mesenchymal stem cells was assayed.

[12] = system: healthy adipose derived mesenchymal stem cells; conditions: human, 72 h
Procedure: as §7, §8

ALDH1A1 (WT) = biological target: T1, ALDH1A1 (WT) (Homo sapiens, UniProt P00352); assay: In vitro enzymatic inhibition assay, ALDH1A1 (WT); format: biochemical; conditions: 2 min incub
T1 sequence (P00352 1-501): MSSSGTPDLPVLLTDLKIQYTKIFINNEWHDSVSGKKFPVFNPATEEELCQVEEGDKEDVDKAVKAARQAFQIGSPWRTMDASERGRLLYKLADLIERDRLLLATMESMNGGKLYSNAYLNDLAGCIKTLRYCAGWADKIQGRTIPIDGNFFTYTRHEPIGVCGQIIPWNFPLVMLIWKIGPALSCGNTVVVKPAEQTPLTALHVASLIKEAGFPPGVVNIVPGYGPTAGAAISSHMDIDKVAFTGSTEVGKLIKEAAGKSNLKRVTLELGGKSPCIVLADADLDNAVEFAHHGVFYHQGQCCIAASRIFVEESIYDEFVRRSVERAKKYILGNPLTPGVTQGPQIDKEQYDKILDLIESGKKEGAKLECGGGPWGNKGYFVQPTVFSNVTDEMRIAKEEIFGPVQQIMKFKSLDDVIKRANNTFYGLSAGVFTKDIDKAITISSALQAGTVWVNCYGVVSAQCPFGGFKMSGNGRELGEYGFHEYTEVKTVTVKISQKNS

ALDH1A1 (S121) = biological target: T2, ALDH1A1 (S121) (Homo sapiens, UniProt P00352, N121S); assay: In vitro enzymatic inhibition assay, ALDH1A1 (S121); format: biochemical
T2 sequence (P00352 1-501 N121S): T1 sequence (P00352 1-501) with N121S

ALDH1A2 = biological target: T3, ALDH1A2 (Homo sapiens, UniProt O94788); assay: In vitro enzymatic inhibition assay, ALDH1A2; format: biochemical
T3 sequence (O94788 1-518): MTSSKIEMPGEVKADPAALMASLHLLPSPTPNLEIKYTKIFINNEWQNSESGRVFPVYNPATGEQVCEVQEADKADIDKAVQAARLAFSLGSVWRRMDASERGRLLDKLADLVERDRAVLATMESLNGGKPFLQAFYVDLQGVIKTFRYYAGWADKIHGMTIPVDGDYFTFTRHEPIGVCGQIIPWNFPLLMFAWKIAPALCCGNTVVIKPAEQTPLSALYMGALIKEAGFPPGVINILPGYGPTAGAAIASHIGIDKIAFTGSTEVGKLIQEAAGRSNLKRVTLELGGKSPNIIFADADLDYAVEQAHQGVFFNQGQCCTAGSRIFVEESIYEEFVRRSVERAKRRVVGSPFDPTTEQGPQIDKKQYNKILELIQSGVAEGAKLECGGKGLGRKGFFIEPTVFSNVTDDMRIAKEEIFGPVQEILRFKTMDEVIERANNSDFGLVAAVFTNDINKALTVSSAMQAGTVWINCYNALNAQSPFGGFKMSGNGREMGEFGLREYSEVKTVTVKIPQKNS

ALDH1A3 = biological target: T4, ALDH1A3 (Homo sapiens, UniProt P47895); assay: In vitro enzymatic inhibition assay, ALDH1A3; format: biochemical
T4 sequence (P47895 1-512): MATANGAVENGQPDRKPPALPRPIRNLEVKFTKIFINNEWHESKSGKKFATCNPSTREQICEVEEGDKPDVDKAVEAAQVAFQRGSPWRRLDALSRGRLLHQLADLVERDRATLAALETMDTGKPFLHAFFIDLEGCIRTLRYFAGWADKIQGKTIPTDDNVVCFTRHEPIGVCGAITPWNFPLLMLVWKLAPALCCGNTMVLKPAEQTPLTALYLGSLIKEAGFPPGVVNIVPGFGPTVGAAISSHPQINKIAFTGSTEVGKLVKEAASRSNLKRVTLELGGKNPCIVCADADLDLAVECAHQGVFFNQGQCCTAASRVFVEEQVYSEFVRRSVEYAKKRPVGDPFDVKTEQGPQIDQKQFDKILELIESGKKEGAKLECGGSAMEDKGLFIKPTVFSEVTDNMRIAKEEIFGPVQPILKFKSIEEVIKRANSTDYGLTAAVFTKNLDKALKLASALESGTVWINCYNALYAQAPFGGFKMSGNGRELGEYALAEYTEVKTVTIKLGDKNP

ALDH3A1 = ALDH3A1 (Homo sapiens, UniProt P30838); assay: In vitro enzymatic inhibition assay, ALDH3A1; format: biochemical
ALDH3A1, sequence (P30838 whole entry): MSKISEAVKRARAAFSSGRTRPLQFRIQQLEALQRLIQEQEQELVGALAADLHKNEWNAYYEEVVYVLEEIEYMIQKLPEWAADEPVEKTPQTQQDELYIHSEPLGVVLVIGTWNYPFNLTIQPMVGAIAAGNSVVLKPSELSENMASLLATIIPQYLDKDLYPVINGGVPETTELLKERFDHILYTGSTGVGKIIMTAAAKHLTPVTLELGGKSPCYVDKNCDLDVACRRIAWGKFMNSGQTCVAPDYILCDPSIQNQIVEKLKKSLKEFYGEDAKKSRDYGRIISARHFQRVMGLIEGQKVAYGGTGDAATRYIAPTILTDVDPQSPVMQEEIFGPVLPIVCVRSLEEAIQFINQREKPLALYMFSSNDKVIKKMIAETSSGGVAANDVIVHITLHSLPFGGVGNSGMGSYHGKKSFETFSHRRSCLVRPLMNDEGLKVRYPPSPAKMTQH

Compound: Cc1cc(N2Cc3ccccc3C2)ccc1C=O [UM673]
IC50 (all the ALDH1A isoforms): < 0.23 µM
death of ALDH+ cells (ALDH+ cells): 65%
death of CD133+ cells (CD133+ cells): ~93%
TD50 [1]: 12 to 50 µM
lowest dose with measurable effects on A2780 viability (A2780): 2.5 µM
cytotoxicity versus bulk populations [2]: variable modest cytotoxicity
decrease in sphere number [3]: 2.6 fold
reduction in total cell number [3]: ~8 fold
decrease in sphere formation (OVCAR8 cells): 5.6 fold
reduction total cell numbers (OVCAR8 cells): 3 fold
average reduction in the number of spheres formed [4]: 7.3 fold
tumor initiation (tumors/injections) ([5]; 200 cells injected): 2/4
tumor initiation (tumors/injections) ([5]; 1000 cells injected): 4/4
tumor initiation (tumors/injections) ([5]; 5000 cells injected): 4/5
effect on tumor initiation capacity ([5]; compared to untreated controls): neither cisplatin or UM673 affected tumor initiation
tumor growth [6]: statistically significant reduction in tumor growth
tumor growth ([6]; listed as UM 673): modest restrictions in tumor growth
tumor growth [7]: Greatest activity
time to tumor regrowth after discontinuation of therapy ([8]; mouse, in vivo): approximately 4 weeks
tumor growth ([8]; treatment started at ˜500 mm^3): prevented tumor regrowth
Annexin-V staining [9]: not associated with an increase in Annexin-V staining
increase in intracellular calcium (intracellular calcium): fourfold increase
induction of the mitochondrial uncoupling proteins UCP1 and UCP3 (UCP1 and UCP3): 80 ×
expression of stem cell factors Oct4 and Sox2 (Oct4, and Sox2): down regulated
cellular oxygen consumption [10]: slow and steady decline
levels of citrate (mitochondrial metabolism): marked decrease
loss of ALDH+ and CD133+ cells (A2770 cells): reductions in not only ALDH+ cells, but also CD133+ cells
TD50 [11]: ~105 µM
TD50 [12]: ~105 µM

IC50 (ALDH1A1 (WT)): 0.519 ± 0.075 µM
IC50 (ALDH1A1 (S121)): 1.49 ± 0.24 µM
IC50 (ALDH1A2): > 20 µM
IC50 (ALDH1A3): > 20 µM
IC50 (ALDH3A1): > 20 µM
Compound: DEAB [reference compound]
